Test results published in patent publication US20120142750A1, “INDOLEAMINE 2,3-DIOXYGENASE PATHWAYS IN THE GENERATION OF REGULATORY T CELLS” (Regents of the University of Minnesota, priority 2005, published 2012).

Tests used:
[1] = tested on: PDCs and allogeneic naive CD4+ T cells; assay: In vitro priming of naive CD4+ T cells by allogeneic PDCs: CD4+CD25+Foxp3+ Treg generation (flow cytometry); type: cell-based, human; conditions: added to CpG ODN-PDC/naive CD4+ T cell priming cultures; day 7; 1MT 250 μM, Abs 0.1-10 μg/ml
Description: PDC, B, and T cell isolation. Human PBMC were isolated under IRE-approved protocols from apheresis products of healthy blood donors (Memorial Blood Centers of Minnesota, Minneapolis, Minn.) by Ficoll-Paque density gradient centrifugation. Plasmascytoid dendritic cells (PDCs) were isolated from PBMC using BDCA-4 cell isolation kits and the MACS system, followed by staining and sorting to collect purified Lin-CD11c-CD123+ PDCs, as reported previously (Moseman et al., J Immunol 2004; 173:4433-4442). […] cells were isolated from PBMC using CD4 T cell isolation kits followed by positive selection with CD45RA microbeads. […] B cells were isolated from PBMC with CD19 microbeads and the MACS system to greater than 98% purity of CD19+ B cells. All cell isolations kits and microbeads were from Miltenyi Biotec (Bergisch Gladbach, Germany). Reagents. Phosphorothioate-modified type-A CpG ODN 2216: […] NO:2), type-B CpG ODN 2006: […] NO:3) (sequences are shown 5'-3'; small letters represent phosphorothioate linkage; capital letters represent phosphodiester linkage 3' of the base; bold represents CpGdinucleotides) were from Integrated DNA Technologies (Coralville, Iowa), diluted in PBS, and used at a final concentration of 1 microgran per milliliter (μg/ml). […] Kynurenine (L-KYN, Sigma-Aldrich) was used at a final concentration of 50 μM. In vitro priming of naive CD4+ T cells. CD4+CD45RA+ naive T cells were primed with allogeneic PDCs or irradiated B cells (30 Gy) at a 10:1 ratio (e.g., 2×10^6 naive CD4+ T cells plus 2×105 PDCs per well in 24-well plates) with ODN 2216 or ODN 2006 present in RPMI 1640 medium supplemented with 10% human AB serum. 1 MT and/or KYN were added into CpG ODN-PDC or CpG ODN-B cell mediated naive CD4+ T cell priming cultures as indicated. […] After 7 days, primed T cells in cultures were harvested, assessed for their surface phenotype, intracellular Foxp3 expression, and their function in MLR assays. […] Mean fluorescence intensity (MFI) and positive cell percentages of stained cells were determined by flow cytometry.

[2] = tested on: BM3 T cells; assay: Ex vivo T cell suppression assays with sorted Tregs from treated mice; type: in vivo, mouse
Description: CpG Oligonucleotides. CpG-ODNs (CpG no. 1826, […]; (SEQ ID NO:4) and sequence matched non-CpG-B no. 2138, […] (SEQ ID NO:5)) with fully phosphorothioate backbones were purchased from Coley Pharmaceuticals. Mice were injected with relatively high doses of ODNs (50 μg/mouse, i/v) as described (Mellor et al. J Immunol 2005; 175:5601-5605).
1-methyl-[D]-tryptophan (1 mT). 1 mT (catalog number 45, 248-3, Sigma) was prepared as a 20 mM stock solution in 0.1 N NaOH, adjusted to pH 7.4, and stored at −20° C. protected from light. For in vitro use, 1 mT was added to MLRs to a final concentration of 100 μM. For in vivo treatment, slow-release polymer pellets (*5 mg/day) containing 1 mT or vehicle alone were inserted under the dorsal skin as described (Munn et al. Science 1998; 281:1191-1193) 24 hours before CpG treatment.
Preparative flow cytometry to sort CD4+ T cells subsets. CD4+ T cell subsets were purified using a Mo-Flo cytometer as described (Mellor et al. J Immunol 2005; 175:5601-5605; Munn et al. Immunity 2005; 22:1-10).
Ex vivo T cell suppression assays. Suppression assays were performed by adding sorted CD4+ cells to T cell proliferation assays (72 hour thymidine incorporation assays) containing responder H-2K^b-specific splenocytes from BM3 TCR transgenic mice (nylon-wool enriched) and CD11c+ splenocytes (AutoMacs enriched) from CBK (H-2K^b transgenic CBA) mice prepared as described (Mellor et al. J Immunol 2005; 175:5601-5605).

[3] = tested on: PDCs; assay: Surface expression of CD80, CD86, HLA-DR on PDCs (flow cytometry); type: cell-based, human; conditions: 1MT added to priming MLRs with CpG ODN
Description: PDC, B, and T cell isolation. Human PBMC were isolated under IRE-approved protocols from apheresis products of healthy blood donors (Memorial Blood Centers of Minnesota, Minneapolis, Minn.) by Ficoll-Paque density gradient centrifugation. Plasmascytoid dendritic cells (PDCs) were isolated from PBMC using BDCA-4 cell isolation kits and the MACS system, followed by staining and sorting to collect purified Lin-CD11c-CD123+ PDCs, as reported previously (Moseman et al., J Immunol 2004; 173:4433-4442). CD4+CD45RA+ naïve T cells were isolated from PBMC using CD4 T cell isolation kits followed by positive selection with CD45RA microbeads. The purity of naïve CD4+ T cells was greater than 95% for CD4+CD45RA+ expression and less than 0.5% for CD25+ expression. B cells were isolated from PBMC with CD19 microbeads and the MACS system to greater than 98% purity of CD19+ B cells. All cell isolations kits and microbeads were from Miltenyi Biotec (Bergisch Gladbach, Germany).
Flow Cytometry. Fluorescent antibodies (Abs) against human CD3, CD4, CD11c, CD19, CD25, CD40, CD45, CD45RA, CD45RO, CD80, CD86, CD123, HLA-DR, lineage (Lin) markers, and isotype control Abs were from BD Biosciences (San Diego, Calif.). […] Mean fluorescence intensity (MFI) and positive cell percentages of stained cells were determined by flow cytometry.

## Cn1cc(C[C@@H](N)C(=O)O)c2ccccc21 [Inhibitor 1MT, 1-methyl-D-tryptophan]
[1]
  PDC-induced CD4+CD25+Foxp3+ Treg generation, effect of added agent: significantly reduced
[2]; 100 μM in culture, Tregs from CpG-treated mice
  reversal of Treg-mediated suppression by IDO inhibitor added to parallel cultures: did not reverse suppression
[2]; slow-release pellets 24 hours before CpG, IDO-WT mice
  CpG-mediated stimulation of Treg suppressive functions, IDO inhibitor given to Treg donor mice: prevented CpG-mediated stimulation of Treg suppressive functions
[3]
  expression of cell surface maturation markers by PDCs (CD80, CD86, HLA-DR): insignificant effects
